{"source": "patent US11766419B2", "about": "“Mebeverine as soluble epoxide hydrolase inhibitor” (Banasthali Vidyapith, priority 2021, dated 2023)", "key": {"[1]": {"system": "angiotensin-II induced hypertensive rats", "experiment": "Angiotensin II induced hypertension, blood pressure", "format": "in vivo, rat", "conditions": "both 10 mg/kg and 20 mg/kg, P<0.001", "description": "Wistar albino male rats were divided into four experimental groups (I, II, III and IV). Groups II-IV were infused with Angiotensin II at a continuous rate via subcutaneously implanted osmotic mini pump for 7 days. After induction of high blood pressure, (>140/90 mm of Hg), Groups III and IV were administered with mebeverine twice daily for five consecutive days at 10 mg/kg and 20 mg/kg doses respectively. At the end of this experimental period SAP, DAP and MAP were measured. The results are tabulated below in Tables 3A, 3B, and 3C, respectively, and are plotted in FIGS. 3a, 3b and 3c."}, "[2]": {"system": "Triton WR-1339 induced hyperlipidaemic rats", "experiment": "Triton WR-1339 induced hyperlipidemia, serum lipid profile and CRI/AI", "format": "in vivo, rat", "conditions": "for CRI: Coronary risk index; for Cholesterol / HDL / LDL / Triglycerides / VLDL: serum", "description": "Wistar albino male rats were divided into four experimental groups (I, II, III and IV). Groups II-IV were treated with intraperitoneal injection of Triton WR-1339 (200 mg/kg in 2% gum acacia) in 12 h fasted rats to induce hyperlipidemia. Group III and IV were orally administered with Mebeverine twice daily for 3 days at 10 mg/kg and 20 mg/kg. After 48 h, induction of hyperlipidemia blood serum was investigated for total cholesterol and triglycerides. Blood samples were collected from all experimental rats on day 6 (4 days after start of treatment), and, subsequently, serum was separated for analysis of serum lipid profile parameters and CRI/AI. Liver was excised and stored at −80° C. until biochemical parameters in hepatic tissue samples were analysed. The results are tabulated below in Table 6 and plotted in FIGS. 7 (a-e) and 8."}, "[3]": {"system": "isolated rat aortic strip", "experiment": "Ex-vivo relaxation of KCl pre-constricted isolated rat aortic strip", "conditions": "aortic rings constricted with 80 mmol KCl", "description": "Aortic rings were suspended in organ baths containing a modified Krebs buffer and bubbled with a mixture of 95% O2/5% CO2. Rings were connected to an isometric force transducer, resting tension was set to 5 g and constricted with 80 mmol KCl. The relaxation of these pre-constricted aortic trips at different concentrations of mebeverine (10^−9-10^−[…]) are tabulated in Table 2 and plotted in FIG. 2."}, "[4]": {"system": "DOCA-induced hypertensive rats", "experiment": "SOD and TBAR level in heart and aortic tissue, DOCA induced hypertension", "format": "in vivo, rat", "description": "Wistar albino male rats were divided into four experimental groups (I, II, III and IV). Groups (II-IV) were administered with DOCA (20 mg/kg in 5% DMSO) intraperitoneally and drinking water was replaced by 2% NaCl. […] At the end of this experimental period SAP, DAP and MAP were measured. The results are tabulated below in Tables 4A, 4B and 4C, respectively, and are plotted in FIGS. 4a, 4b and 4c. Additionally, the levels of oxidative stress biomarkers, superoxide dismutase (SOD) and thiobarbituric acid (TBARs)s in heart and aortic tissue were also measured (Cayman commercial kit). The results are tabulated in Table 5 and plotted in FIGS. 5a and 5b (TBAR level) and 6a and 6b (SOD level)."}, "[5]": {"system": "Lipopolysaccharide (LPS)-induced hyperlipidemic rats", "experiment": "TBAR and SOD level in hepatic tissue, LPS-induced hyperlipidemia", "format": "in vivo, rat", "description": "Wistar albino male rats were divided into different experimental groups—Single dose of 10 mg/kg, i.p. of LPS was administered to all the groups (II-IV). After 3 days of induction mebeverine was orally given twice daily for 5 days to groups (III-IV). After last dose, on day 5, blood samples were collected from all experimental rats for analysis of serum lipid profile parameters and CRI/AI. […] Biochemical estimations in hepatic tissue samples were also analyzed."}, "[6]": {"system": "Lipopolysaccharide (LPS)-induced hyperlipidaemic rats", "experiment": "LPS-induced hyperlipidemia, serum lipid profile and CRI/AI", "format": "in vivo, rat", "conditions": "for AI: Atherogenic index; for CRI: Coronary risk index; for Cholesterol / HDL / LDL / Triglycerides / VLDL: serum", "description": "Wistar albino male rats were divided into different experimental groups—Single dose of 10 mg/kg, i.p. of LPS was administered to all the groups (II-IV). After 3 days of induction mebeverine was orally given twice daily for 5 days to groups (III-IV). After last dose, on day 5, blood samples were collected from all experimental rats for analysis of serum lipid profile parameters and CRI/AI. The results are tabulated below in Table 8 and plotted in FIGS. 11 (a-e) and 12. Biochemical estimations in hepatic tissue samples were also analyzed."}, "sEH": {"target": "T1, sEH (Homo sapiens, UniProt P34913)", "T1 sequence (P34913 1-555)": "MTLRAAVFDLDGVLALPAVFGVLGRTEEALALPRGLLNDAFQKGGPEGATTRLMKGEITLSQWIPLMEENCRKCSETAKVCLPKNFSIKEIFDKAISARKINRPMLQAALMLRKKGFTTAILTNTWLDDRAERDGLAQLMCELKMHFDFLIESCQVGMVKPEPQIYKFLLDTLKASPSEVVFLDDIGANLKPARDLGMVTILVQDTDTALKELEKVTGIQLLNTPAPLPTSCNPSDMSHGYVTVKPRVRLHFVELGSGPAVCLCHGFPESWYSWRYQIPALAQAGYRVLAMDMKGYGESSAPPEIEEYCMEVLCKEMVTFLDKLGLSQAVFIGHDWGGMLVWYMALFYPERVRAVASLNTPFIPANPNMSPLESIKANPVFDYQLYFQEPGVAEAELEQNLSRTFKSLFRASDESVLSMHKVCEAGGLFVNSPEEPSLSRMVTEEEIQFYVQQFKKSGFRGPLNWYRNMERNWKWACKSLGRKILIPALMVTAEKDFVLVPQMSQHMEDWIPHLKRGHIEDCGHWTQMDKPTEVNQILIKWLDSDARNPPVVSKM", "experiment": "In vitro sEH activity assay (PHOME substrate, fluorescence)", "format": "biochemical", "design": "sEH inhibitory activity (in words): dose or concentration left out as unconfirmed", "description": "Hydrolysis of PHOME by sEH results in the release of cyanohydrins that further decomposes to cyanide ion and 6-methoxy-2-naphthaldehyde (highly fluorescent). The fluorescence was analyzed at an excitation and emission wavelength of 330 nm and 465 nm respectively."}, "[7]": {"conditions": "10 mg/kg orally twice daily for 3 days"}, "[8]": {"conditions": "20 mg/kg orally twice daily for 3 days"}, "[9]": {"conditions": "10 mg/kg orally twice daily for 5 days"}, "[10]": {"conditions": "20 mg/kg orally twice daily for 5 days"}}, "note": "pIC50: −log10 of the molar value. Where “and” joins values, the source holds several entries; their conditions need not be identical. Identical values can stand only once.", "data": [{"molecule": "CCN(CCCCOC(=O)c1ccc(OC)c(OC)c1)C(C)Cc1ccc(OC)cc1", "note": "(centres unmarked) [Mebeverine]", "values": [{"measurement": "Effect on high blood pressure (in words)", "setting": "[1]", "result": "reduces the high blood pressure"}, {"measurement": "HDL (in words)", "setting": "[2]; 10 mg/kg", "result": "increases HDL"}, {"measurement": "triglycerides, cholesterol, LDL and VLDL and CRI/AI (in words)", "setting": "[2]; 10 mg/kg", "result": "markedly decreases"}, {"measurement": "AT", "setting": "[2]; [7]", "result": "2.32 ± 0.02"}, {"measurement": "AT", "setting": "[2]; [8]", "result": "0.79 ± 0.19"}, {"measurement": "CRI", "setting": "[2]; [7]", "result": "3.32 ± 0.02"}, {"measurement": "CRI", "setting": "[2]; [8]", "result": "1.79 ± 0.02"}, {"measurement": "Cholesterol", "setting": "[2]; [7]", "result": "108.00 ± 8.48", "unit": "mg/dL"}, {"measurement": "HDL", "setting": "[2]; [7]", "result": "32.50 ± 2.12", "unit": "mg/dL"}, {"measurement": "LDL", "setting": "[2]; [7]", "result": "55.90 ± 9.75", "unit": "mg/dL"}, {"measurement": "Triglycerides", "setting": "[2]; [7]", "result": "98.00 ± 9.8", "unit": "mg/dL"}, {"measurement": "VLDL", "setting": "[2]; [7]", "result": "19.60 ± 3.25", "unit": "mg/dL"}, {"measurement": "Cholesterol", "setting": "[2]; [8]", "result": "95.00 ± 4.94", "unit": "mg/dL"}, {"measurement": "HDL", "setting": "[2]; [8]", "result": "53.00 ± 1.59", "unit": "mg/dL"}, {"measurement": "LDL", "setting": "[2]; [8]", "result": "26.90 ± 1.83", "unit": "mg/dL"}, {"measurement": "Triglycerides", "setting": "[2]; [8]", "result": "77.00 ± 9.19", "unit": "mg/dL"}, {"measurement": "VLDL", "setting": "[2]; [8]", "result": "15.40 ± 1.83", "unit": "mg/dL"}, {"measurement": "% relaxation", "setting": "[3]; Mebeverine conc 10^−4 nM (maximal relaxant effect)", "result": "79.3±0.01% and 79.3%"}, {"measurement": "% relaxation", "setting": "[3]; Mebeverine conc 10^−5 nM", "result": 71.1, "unit": "%"}, {"measurement": "% relaxation", "setting": "[3]; Mebeverine conc 10^−6 nM", "result": 64.9, "unit": "%"}, {"measurement": "% relaxation", "setting": "[3]; Mebeverine conc 10^−7 nM", "result": 52.2, "unit": "%"}, {"measurement": "% relaxation", "setting": "[3]; Mebeverine conc 10^−8 nM", "result": 23.9, "unit": "%"}, {"measurement": "% relaxation", "setting": "[3]; Mebeverine conc 10^−9 nM", "result": 14.5, "unit": "%"}, {"measurement": "SOD Level", "setting": "[4]; Aortic tissue, 10 mg/kg", "result": "70.20 ± 0.28", "unit": "U/g tissue"}, {"measurement": "TBAR level", "setting": "[4]; Aortic tissue, 10 mg/kg", "result": "0.87 ± 0.02", "unit": "nmol/mg protein"}, {"measurement": "SOD Level", "setting": "[4]; Aortic tissue, 20 mg/kg", "result": "90.21 ± 0.21", "unit": "U/g tissue"}, {"measurement": "TBAR level", "setting": "[4]; Aortic tissue, 20 mg/kg", "result": "0.71 ± 0.03", "unit": "nmol/mg protein"}, {"measurement": "SOD Level", "setting": "[4]; Heart tissue, 10 mg/kg", "result": "73.04 ± 0.29", "unit": "U/g tissue"}, {"measurement": "TBAR level", "setting": "[4]; Heart tissue, 10 mg/kg", "result": "0.88 ± 0.03", "unit": "nmol/mg protein"}, {"measurement": "SOD Level", "setting": "[4]; Heart tissue, 20 mg/kg", "result": "86.24 ± 0.37", "unit": "U/g tissue"}, {"measurement": "TBAR level", "setting": "[4]; Heart tissue, 20 mg/kg", "result": "0.68 ± 0.01", "unit": "nmol/mg protein"}, {"measurement": "SOD activity (in words)", "setting": "[4]; aortic and heart tissue", "result": "significant dose dependent increase"}, {"measurement": "TBARs concentration (in words)", "setting": "[4]; aortic and heart tissue", "result": "significant dose dependent decrease"}, {"measurement": "SOD", "setting": "[5]; 10 mg/kg", "result": "67.13 ± 0.21", "unit": "U/g protein"}, {"measurement": "TBAR", "setting": "[5]; 10 mg/kg", "result": "1.10 ± 0.01", "unit": "nmol/mg protein"}, {"measurement": "SOD", "setting": "[5]; 20 mg/kg", "result": "74.50 ± 0.15", "unit": "U/g protein"}, {"measurement": "TBAR", "setting": "[5]; 20 mg/kg", "result": "0.701 ± 0.02", "unit": "nmol/mg protein"}, {"measurement": "AI", "setting": "[6]; [9]", "result": "2.14 ± 0.02"}, {"measurement": "AI", "setting": "[6]; [10]", "result": "1.01 ± 0.17"}, {"measurement": "CRI", "setting": "[6]; [9]", "result": "3.14 ± 0.14"}, {"measurement": "CRI", "setting": "[6]; [10]", "result": "2.01 ± 0.17"}, {"measurement": "Cholesterol", "setting": "[6]; [9]", "result": "132.5 ± 4.24", "unit": "mg/dL"}, {"measurement": "HDL", "setting": "[6]; [9]", "result": "42.0 ± 1.41", "unit": "mg/dL"}, {"measurement": "LDL", "setting": "[6]; [9]", "result": "58.3 ± 3.25", "unit": "mg/dL"}, {"measurement": "Triglycerides", "setting": "[6]; [9]", "result": "158.5 ± 3.58", "unit": "mg/dL"}, {"measurement": "VLDL", "setting": "[6]; [9]", "result": "31.6 ± 0.34", "unit": "mg/dL"}, {"measurement": "Cholesterol", "setting": "[6]; [10]", "result": "103.50 ± 1.41", "unit": "mg/dL"}, {"measurement": "HDL", "setting": "[6]; [10]", "result": "51.00 ± 3.53", "unit": "mg/dL"}, {"measurement": "LDL", "setting": "[6]; [10]", "result": "30.0 ± 3.25", "unit": "mg/dL"}, {"measurement": "Triglycerides", "setting": "[6]; [10]", "result": "110.00 ± 2.82", "unit": "mg/dL"}, {"measurement": "VLDL", "setting": "[6]; [10]", "result": "22.0 ± 0.56", "unit": "mg/dL"}, {"measurement": "sEH inhibitory activity (in words)", "setting": "sEH; dose-dependent", "result": "potent inhibitor of sEH enzyme"}, {"measurement": "pIC50", "setting": "sEH; sEH, PHOME substrate", "result": 8.41}]}]}
